Results from ChEMBL document CHEMBL3991601, “The target landscape of clinical kinase drugs” (Science, 2017).
Active and inactive are the calls of the source. For most assays here, no stated cut-off is given here; in the data, actives have a measured Kd and inactives only a lower limit.

How the values were obtained:
[1] = target: T1, Acyl-CoA dehydrogenase family member 11 (Homo sapiens, UniProt Q709F0)
T1 sequence (Q709F0 whole entry): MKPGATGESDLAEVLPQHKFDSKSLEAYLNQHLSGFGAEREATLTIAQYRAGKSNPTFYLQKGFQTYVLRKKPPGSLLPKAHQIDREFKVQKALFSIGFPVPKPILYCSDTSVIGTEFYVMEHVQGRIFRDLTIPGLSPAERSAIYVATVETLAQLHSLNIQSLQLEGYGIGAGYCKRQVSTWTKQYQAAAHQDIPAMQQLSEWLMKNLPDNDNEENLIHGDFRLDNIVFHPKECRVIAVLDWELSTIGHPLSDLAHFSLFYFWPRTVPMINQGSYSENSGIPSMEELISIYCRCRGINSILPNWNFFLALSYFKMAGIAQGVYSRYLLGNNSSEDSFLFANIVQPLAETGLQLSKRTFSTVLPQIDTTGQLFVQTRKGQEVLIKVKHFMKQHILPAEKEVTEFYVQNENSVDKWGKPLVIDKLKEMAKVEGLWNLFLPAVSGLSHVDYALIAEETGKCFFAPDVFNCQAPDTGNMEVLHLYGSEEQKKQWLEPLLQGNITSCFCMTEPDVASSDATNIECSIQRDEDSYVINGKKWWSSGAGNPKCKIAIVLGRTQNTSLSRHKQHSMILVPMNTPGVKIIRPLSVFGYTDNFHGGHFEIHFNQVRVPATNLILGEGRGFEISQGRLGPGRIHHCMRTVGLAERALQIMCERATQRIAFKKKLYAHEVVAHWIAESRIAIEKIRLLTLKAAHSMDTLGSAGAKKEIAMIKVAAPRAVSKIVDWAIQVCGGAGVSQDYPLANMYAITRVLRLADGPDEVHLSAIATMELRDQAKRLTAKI

[2] = target: T2, Calcium/calmodulin-dependent protein kinase type IV (Homo sapiens, UniProt Q16566)
T2 sequence (Q16566 whole entry): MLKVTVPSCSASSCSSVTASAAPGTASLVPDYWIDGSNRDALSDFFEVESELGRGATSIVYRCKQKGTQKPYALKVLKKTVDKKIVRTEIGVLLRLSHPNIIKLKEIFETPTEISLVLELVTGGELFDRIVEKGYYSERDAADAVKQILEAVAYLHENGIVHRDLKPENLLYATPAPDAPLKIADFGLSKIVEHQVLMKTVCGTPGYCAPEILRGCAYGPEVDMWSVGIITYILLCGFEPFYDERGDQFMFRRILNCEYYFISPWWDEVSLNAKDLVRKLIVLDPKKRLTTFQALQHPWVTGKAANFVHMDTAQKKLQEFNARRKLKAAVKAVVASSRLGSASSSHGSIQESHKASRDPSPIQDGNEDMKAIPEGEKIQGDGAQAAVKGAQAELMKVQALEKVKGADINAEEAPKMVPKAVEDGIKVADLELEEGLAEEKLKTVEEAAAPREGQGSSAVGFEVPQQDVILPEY

[3] = target: Casein kinase I isoform epsilon (Homo sapiens, UniProt P49674)
Casein kinase I isoform epsilon, sequence (P49674 whole entry, canonical isoform): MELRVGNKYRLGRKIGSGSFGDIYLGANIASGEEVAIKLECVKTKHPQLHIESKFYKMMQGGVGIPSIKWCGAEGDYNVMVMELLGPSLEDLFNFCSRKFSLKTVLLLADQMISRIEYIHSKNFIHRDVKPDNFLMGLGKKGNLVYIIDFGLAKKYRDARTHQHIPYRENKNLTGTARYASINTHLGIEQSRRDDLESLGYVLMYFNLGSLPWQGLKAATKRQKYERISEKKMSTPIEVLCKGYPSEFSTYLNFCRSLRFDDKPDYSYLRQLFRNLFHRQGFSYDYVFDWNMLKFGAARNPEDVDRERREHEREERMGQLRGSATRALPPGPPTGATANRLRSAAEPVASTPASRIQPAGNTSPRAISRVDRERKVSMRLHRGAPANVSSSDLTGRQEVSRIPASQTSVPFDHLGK

Ephrin type-B receptor 2 = target: T3, Ephrin type-B receptor 2 (Homo sapiens, UniProt P29323)
T3 sequence (P29323 whole entry): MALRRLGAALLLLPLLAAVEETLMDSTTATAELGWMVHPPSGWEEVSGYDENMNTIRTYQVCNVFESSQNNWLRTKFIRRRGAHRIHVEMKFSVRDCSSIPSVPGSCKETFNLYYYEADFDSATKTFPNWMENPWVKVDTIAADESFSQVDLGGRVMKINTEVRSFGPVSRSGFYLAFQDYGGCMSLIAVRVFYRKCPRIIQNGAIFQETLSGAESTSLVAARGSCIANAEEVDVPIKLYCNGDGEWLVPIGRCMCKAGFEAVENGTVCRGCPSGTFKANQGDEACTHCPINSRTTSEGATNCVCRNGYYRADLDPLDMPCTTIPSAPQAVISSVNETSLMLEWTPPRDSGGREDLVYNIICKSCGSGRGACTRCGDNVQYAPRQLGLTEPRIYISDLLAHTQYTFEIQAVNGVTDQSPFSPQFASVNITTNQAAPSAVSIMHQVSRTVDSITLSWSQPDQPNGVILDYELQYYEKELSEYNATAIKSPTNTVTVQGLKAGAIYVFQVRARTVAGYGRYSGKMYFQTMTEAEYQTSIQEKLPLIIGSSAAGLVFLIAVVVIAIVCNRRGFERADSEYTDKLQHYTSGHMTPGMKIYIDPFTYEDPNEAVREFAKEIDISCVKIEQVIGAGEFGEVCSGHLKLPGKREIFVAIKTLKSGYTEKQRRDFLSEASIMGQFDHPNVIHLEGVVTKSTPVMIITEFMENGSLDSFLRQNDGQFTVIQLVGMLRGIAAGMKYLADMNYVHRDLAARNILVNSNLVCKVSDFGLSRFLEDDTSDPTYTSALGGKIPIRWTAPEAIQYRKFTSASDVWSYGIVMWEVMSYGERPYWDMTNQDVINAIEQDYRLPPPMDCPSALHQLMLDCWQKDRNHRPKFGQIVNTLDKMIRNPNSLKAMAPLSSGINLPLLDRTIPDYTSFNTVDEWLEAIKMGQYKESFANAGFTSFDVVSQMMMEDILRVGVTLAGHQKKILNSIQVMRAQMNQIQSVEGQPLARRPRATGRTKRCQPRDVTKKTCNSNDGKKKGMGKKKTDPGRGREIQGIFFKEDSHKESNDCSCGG

[4] = target: T4, Electron transfer flavoprotein subunit beta (Homo sapiens, UniProt P38117)
T4 sequence (P38117 whole entry): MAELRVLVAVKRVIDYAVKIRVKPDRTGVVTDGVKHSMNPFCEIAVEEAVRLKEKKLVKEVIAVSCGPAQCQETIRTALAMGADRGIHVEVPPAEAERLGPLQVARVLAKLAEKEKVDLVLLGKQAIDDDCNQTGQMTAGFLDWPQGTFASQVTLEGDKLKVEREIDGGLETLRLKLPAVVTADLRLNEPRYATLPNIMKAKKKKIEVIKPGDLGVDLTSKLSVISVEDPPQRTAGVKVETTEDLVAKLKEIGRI

Pyridoxal kinase = target: T5, Pyridoxal kinase (Homo sapiens, UniProt O00764)
T5 sequence (O00764 whole entry): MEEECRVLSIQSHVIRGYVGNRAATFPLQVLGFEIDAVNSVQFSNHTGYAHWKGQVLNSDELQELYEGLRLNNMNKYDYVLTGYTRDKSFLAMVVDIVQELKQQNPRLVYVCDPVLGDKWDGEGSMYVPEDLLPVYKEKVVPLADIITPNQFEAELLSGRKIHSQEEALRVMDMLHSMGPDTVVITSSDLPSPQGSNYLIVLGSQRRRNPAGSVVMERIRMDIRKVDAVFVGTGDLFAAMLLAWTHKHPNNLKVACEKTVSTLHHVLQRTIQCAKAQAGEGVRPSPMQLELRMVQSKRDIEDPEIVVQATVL

[5] = target: Ribosomal protein S6 kinase alpha-1 (Homo sapiens, UniProt Q15418)
Ribosomal protein S6 kinase alpha-1, sequence (Q15418 whole entry): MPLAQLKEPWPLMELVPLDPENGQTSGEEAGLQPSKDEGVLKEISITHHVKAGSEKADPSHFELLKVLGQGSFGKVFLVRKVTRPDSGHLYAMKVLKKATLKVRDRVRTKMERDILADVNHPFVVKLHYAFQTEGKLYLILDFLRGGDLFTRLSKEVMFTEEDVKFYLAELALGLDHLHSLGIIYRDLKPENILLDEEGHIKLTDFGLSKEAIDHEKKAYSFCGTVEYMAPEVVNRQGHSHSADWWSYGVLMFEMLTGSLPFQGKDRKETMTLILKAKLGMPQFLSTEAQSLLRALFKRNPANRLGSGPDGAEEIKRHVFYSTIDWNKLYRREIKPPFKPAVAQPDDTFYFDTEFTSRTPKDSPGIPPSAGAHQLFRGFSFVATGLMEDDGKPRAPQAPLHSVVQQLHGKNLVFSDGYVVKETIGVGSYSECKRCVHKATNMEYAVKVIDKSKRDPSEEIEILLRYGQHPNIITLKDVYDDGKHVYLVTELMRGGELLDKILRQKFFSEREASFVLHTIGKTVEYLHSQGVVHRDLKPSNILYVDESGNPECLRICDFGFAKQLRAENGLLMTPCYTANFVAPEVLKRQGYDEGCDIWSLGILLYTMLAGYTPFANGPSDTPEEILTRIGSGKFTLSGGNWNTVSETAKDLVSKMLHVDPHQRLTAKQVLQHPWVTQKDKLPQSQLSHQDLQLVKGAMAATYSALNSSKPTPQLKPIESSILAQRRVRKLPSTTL

Measured: Kd

COc1cccc2cc(-c3nc([C@H]4CC[C@H](C(=O)O)CC4)n4ncnc(N)c34)[nH]c12 [OSI-027]
inactive: [1] > 30 µM | [2] > 30 µM | [3] > 30 µM | Ephrin type-B receptor 2 > 30 µM | [4] > 30 µM | Pyridoxal kinase > 30 µM | [5] > 30 µM

CN(c1ncccc1CNc1nc(Nc2ccc3c(c2)CC(=O)N3)ncc1C(F)(F)F)S(C)(=O)=O [PF-00562271]
inactive: [1] > 30 µM | [2] > 30 µM | [3] > 30 µM | Ephrin type-B receptor 2 > 30 µM | [4] > 30 µM | Pyridoxal kinase > 30 µM | [5] > 30 µM

CC(C)CC(=O)Nc1[nH]nc2c1CN(C(=O)C1CCN(C)CC1)C2(C)C [PHA-793887]
inactive: [1] > 30 µM | [2] > 30 µM | [3] > 30 µM | Ephrin type-B receptor 2 > 30 µM | [4] > 30 µM | Pyridoxal kinase > 30 µM | [5] > 30 µM

O=C(NC[C@H](O)CO)c1ccncc1Nc1ccc(I)cc1F [PIMASERTIB]
inactive: [1] > 30 µM | [2] > 30 µM | [3] > 30 µM | Ephrin type-B receptor 2 > 30 µM | [4] > 30 µM | Pyridoxal kinase > 30 µM | [5] > 30 µM

COc1cc(F)c(F)c(Nc2ccc(I)cc2F)c1NS(=O)(=O)C1(C[C@H](O)CO)CC1 [REFAMETINIB]
inactive: [1] > 30 µM | [2] > 30 µM | [3] > 30 µM | Ephrin type-B receptor 2 > 30 µM | [4] > 30 µM | Pyridoxal kinase > 30 µM | [5] > 30 µM

COCCN1CCN(Cc2ccc(-c3n[nH]c4c3C(=O)c3c(NC(=O)NN5CCOCC5)cccc3-4)cc2)CC1 [RGB-286638]
inactive: [1] > 30 µM | [2] > 30 µM | [3] > 30 µM | Ephrin type-B receptor 2 > 30 µM | [4] > 30 µM | Pyridoxal kinase > 30 µM | [5] > 30 µM

C=CC(=O)Nc1cccc(Nc2nc(Nc3ccc(N4CCN(C(C)=O)CC4)cc3OC)ncc2C(F)(F)F)c1 [ROCILETINIB]
inactive: [1] > 30 µM | [2] > 30 µM | [3] > 30 µM | Ephrin type-B receptor 2 > 30 µM | [4] > 30 µM | Pyridoxal kinase > 30 µM | [5] > 30 µM

Cn1c(=O)c(F)c(Nc2ccc(I)cc2F)c2c(=O)n(C[C@@H](O)CO)cnc21 [TAK-733]
inactive: [1] > 30 µM | [2] > 30 µM | [3] > 30 µM | Ephrin type-B receptor 2 > 30 µM | [4] > 30 µM | Pyridoxal kinase > 30 µM | [5] > 30 µM

CNC(=O)c1cccc(-c2ccc3c(N4CCOC[C@@H]4C)nc(N4CCOC[C@@H]4C)nc3n2)c1 [VISTUSERTIB]
inactive: [1] > 30 µM | [2] > 30 µM | [3] > 30 µM | Ephrin type-B receptor 2 > 30 µM | [4] > 30 µM | Pyridoxal kinase > 30 µM | [5] > 30 µM

NC(=O)c1ccc(N(C(N)=O)c2c(F)cccc2F)nc1-c1ccc(F)cc1F [VX-702]
inactive: [1] > 30 µM | [2] > 30 µM | [3] > 30 µM | Ephrin type-B receptor 2 > 30 µM | [4] > 30 µM | Pyridoxal kinase > 30 µM | [5] > 30 µM

COc1cc2ncnc(Nc3ccc(O)cc3)c2cc1OC [WHI-P131]
inactive: [1] > 30 µM | [2] > 30 µM | [3] > 30 µM | Ephrin type-B receptor 2 > 30 µM | [4] > 30 µM | Pyridoxal kinase > 30 µM | [5] > 30 µM
